PMC6941823, “A dispensable paralog of succinate dehydrogenase subunit C mediates standing resistance towards a subclass of SDHI fungicides in Zymoseptoria tritici” (PLoS Pathogens, 2019)

How the values were obtained:
[1] = biological target: SQR of 06STD024 (SDHC / altC) mitochondria (Zymoseptoria tritici, UniProt A0A1X7RQW2+F9X9V6+F9XH52+O42772); test: Succinate-quinone (SQR) SDHI sensitivity assay on purified mitochondria, 06STD024; type: biochemical
Method in brief: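 Succinate:ubiquinone/DCPIP reductase inhibition measured on purified mitochondria from Zymoseptoria tritici strains carrying either a single C-subunit gene (ZtSDHC1, ZtSDHC1_A84I or ZtSDHC3) or both ZtSDHC1 and ZtSDHC3; pTet::SDHC3 transformant tested under repressed and induced conditions.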

[2] = test system: Zymoseptoria tritici on wheat variety Riband; test: In planta fungicide dose response; type: in vivo; conditions: for In planta EC50: application one day before infection
Procedure: The influence of the ZtSDHC3-driven SHA-SDHI resistance for the control of Z. tritici during wheat infection was assessed with a small range of commercial SDHIs (Fig 4C and 4D). In planta SDHIs sensitivity assays were performed with the 06STD024 isolate and its ZtSDHC1 or ZtSDHC3 KO mutants. A control strain (705) devoid of the ZtSDHC3 gene but more aggressive than IPO323 on wheat variety Riband was also included for comparison (Fig 4C and 4D).
Wheat (Triticum aestivum) variety Riband was grown in pots (d = 6.5cm), at a density of 4 plants per pot and treated with the growth regulator CCC (Chlorcholinchlorid; Chlormequat; 5 ml / pot, 0.4% solution) 4 days after sowing. Wheat plantlets were maintained in a climatic room at 18°C, 60% humidity and under a 12h light regime (high intensity). Fungicide applications were performed on 14 days old plantlets for which leaf 2 is the fully expanded target leaf. Fungicide treatments were performed using a custom-made track sprayer adjusted at 200L.ha^-1 (Nozzle: Lechler, orange LU90-01). […] Z. tritici infections were performed using a Devilbis airbrush (spray of about 150ml.m^-2) one day after fungicide application and using an inoculum grown on V8-agar adjusted to 1.8.10^6 spores.ml^-1 in 0.05% Tween20 in MQ water. Inoculated plants were initially incubated for 72h under reduced light conditions and high humidity using towel-covered Plexiglas hoods in a climatic chamber set to 21°C/19°C day/night alternations, 80% humidity and a 14h light regime. The Plexiglas hoods were then removed until evaluation. Plants were fertilized once per week and disease evaluation performed based on disease coverage on the second leaf approximately 16–19 days after infection, once untreated plants reached 75–90% disease coverage. Each fungicide was tested at several rates to produce dose responses. There were 3 pots (4 plants each) per fungicide rate and isolate, the whole experiment was repeated 4 times. In planta EC50 were calculated using the software GraphPad Prism v6.08.

Sequence of SQR of 06STD024 (SDHC / altC) mitochondria (A0A1X7RQW2 36-181): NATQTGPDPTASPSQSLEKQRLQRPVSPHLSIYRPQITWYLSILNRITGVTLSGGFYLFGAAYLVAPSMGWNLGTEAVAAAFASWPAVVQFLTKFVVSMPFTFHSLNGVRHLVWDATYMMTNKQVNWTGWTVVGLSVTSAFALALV
Sequence of SQR of 06STD024 (SDHC / altC) mitochondria (O42772 19-297): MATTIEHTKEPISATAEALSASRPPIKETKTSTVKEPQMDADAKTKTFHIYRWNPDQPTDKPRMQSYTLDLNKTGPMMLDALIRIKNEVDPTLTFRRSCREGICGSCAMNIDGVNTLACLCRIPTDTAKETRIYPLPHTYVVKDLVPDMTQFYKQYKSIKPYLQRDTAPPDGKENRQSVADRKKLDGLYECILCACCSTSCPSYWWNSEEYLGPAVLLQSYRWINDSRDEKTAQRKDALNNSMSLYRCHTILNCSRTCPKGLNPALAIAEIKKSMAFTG
Sequence of SQR of 06STD024 (SDHC / altC) mitochondria (F9X9V6 1-193): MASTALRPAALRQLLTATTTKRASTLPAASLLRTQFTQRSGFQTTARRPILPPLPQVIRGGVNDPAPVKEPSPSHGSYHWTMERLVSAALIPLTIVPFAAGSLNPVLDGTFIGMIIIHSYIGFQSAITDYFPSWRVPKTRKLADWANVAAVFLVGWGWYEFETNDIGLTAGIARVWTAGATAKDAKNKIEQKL
Sequence of SQR of 06STD024 (SDHC / altC) mitochondria (F9XH52 44-187): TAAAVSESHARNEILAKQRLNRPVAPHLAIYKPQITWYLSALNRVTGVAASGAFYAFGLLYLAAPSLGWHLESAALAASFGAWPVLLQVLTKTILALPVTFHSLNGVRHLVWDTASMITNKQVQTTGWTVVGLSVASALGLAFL
Sequence of SQR of 06STD024 (SDHC / altC) mitochondria (F9WWR1 29-643 partner): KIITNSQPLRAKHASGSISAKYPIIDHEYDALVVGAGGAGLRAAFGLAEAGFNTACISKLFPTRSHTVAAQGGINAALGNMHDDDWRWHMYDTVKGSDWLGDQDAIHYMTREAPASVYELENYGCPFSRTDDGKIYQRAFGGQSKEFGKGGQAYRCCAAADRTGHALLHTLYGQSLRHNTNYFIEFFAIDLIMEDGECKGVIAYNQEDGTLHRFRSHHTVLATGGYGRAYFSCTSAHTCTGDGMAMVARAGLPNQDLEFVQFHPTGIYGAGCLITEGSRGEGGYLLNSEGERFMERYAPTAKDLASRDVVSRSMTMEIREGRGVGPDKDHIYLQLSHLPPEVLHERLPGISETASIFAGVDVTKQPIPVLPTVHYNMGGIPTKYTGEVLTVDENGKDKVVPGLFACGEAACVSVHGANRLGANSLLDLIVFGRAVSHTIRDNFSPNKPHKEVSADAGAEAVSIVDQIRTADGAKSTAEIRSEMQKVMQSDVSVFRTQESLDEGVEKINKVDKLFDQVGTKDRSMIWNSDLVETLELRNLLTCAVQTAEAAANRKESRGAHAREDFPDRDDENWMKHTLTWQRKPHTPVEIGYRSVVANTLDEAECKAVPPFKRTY

Structure (SMILES): CON(C(=O)c1cn(C)nc1C(F)F)[C@@H](C)Cc1c(Cl)cc(Cl)cc1Cl [Pydiflumetofen]
- RF (resistance factor), 06STD024 (SDHC / altC) ([1]; IC50 ratio compared to IPO323 values): 4.6
- IC50 ([1]; mitochondria of field isolate 06STD024, mean of three ± SD): 1.4 ± 0.05 nM
- In planta EC50 ([2]; 06STD024 ZtSDHC1 KO on wheat Riband): 2.85 g.ha^-1
- In planta EC50 ([2]; 06STD024 ZtSDHC3 KO mutant on wheat Riband): 0.053 g.ha^-1
- In planta EC50 ([2]; WT isolate 06STD024 on wheat Riband): 1.31 g.ha^-1
- In planta sensitivity difference compared to the ZtSDHC3 KO mutant ([2]; WT isolate 06STD024 vs 06STD024 ZtSDHC3 KO): 25 fold
